Assay results published in patent US5466675A, “Immunological activity of rhamnolipids” (priority 1992, dated 1995).

Legend:
beta-galactosidase = assay: enzyme inhibition, beta-galactosidase; format: biochemical
Description: (§1) Rhamnolipid (II) was tested in vitro against a wide array of enzymes.
(§2) The following enzymes were inhibited at the various rhamnolipid concentrations indicated:
(§3) All enzyme assays were done spectrophotometrically by computer linked automatic microplate reader (Labsystem Multiskan) and Diode Array spectrophotometer (Perkin Elmer).

trypsin = assay: enzyme inhibition, trypsin; format: biochemical
Description: as §1, §2, §3

P561ek Tyrosine Kinase = P561ek Tyrosine Kinase (Homo sapiens, UniProt P06239); assay: enzyme inhibition, p56lck tyrosine kinase; format: biochemical; conditions: 0.5% DMSO
Description: as §1, §3

[1] = target: Dopamine D1 (human recombinant) (Homo sapiens, UniProt P21728); assay: [3H] SCH23390 dopamine D1 receptor inhibition; format: binding; conditions: 0.5% DMSO
alpha-chymotrypsin = assay: enzyme inhibition, alpha-chymotrypsin; format: biochemical
Description: as §1, §3

papain = papain (Carica papaya, UniProt P00784); assay: enzyme inhibition, papain; format: biochemical
Description: as §1, §3

herpes simplex virus = assay: effect on viruses, herpes simplex; format: cell-based; conditions: concentrations ≤100 ug/ml
Description: Tests were performed according to D. A. Vanden Berghe et al., Inst. Pasteur 84,101 (1986). Rhamnolipid (II) was toxic for VERO cells in concentrations ≥200 ug/ml, and cytotoxic on MT4 cells in concentrations >169.40 ug/ml.

[2] = tested on: measles edmonston A virus; assay: effect on viruses, measles edmonston A; format: cell-based; conditions: concentrations ≤100 ug/ml
Escherichia coli = assay: minimum inhibitory concentration, Escherichia coli; format: cell-based; conditions: in tested medium
Text: The Minimum inhibitory concentration (MIC) of Rhamnolipid II for Candida albicans, Escherichia coli, Staphylococcus aureus and Pseudomonas aeruginosa was >0.5% in tested medium.

rat platelet rich plasma = assay: collagen induced platelet aggregation; format: cell-based; conditions: 0.1 mg/ml
Description: Collagen induced platelet aggregation in rat platelet rich plasma was not affected by rhamnolipid (II) at 0.1 mg/ml.

CHO cells [3] = format: cell-based
Description: After 16h incubation of CHO cells with rhamnolipid, the number of micronuclei inside certain binuclear cells increased up to 4.

[4] = tested on: T-cells isolated from mouse thymus; assay: T-lymphocyte proliferation; format: cell-based
Description: Procedure: T-cells were isolated from mouse thymus using conventional procedures, and suspended in DMEM. 5×10^6 cells/ml were incubated overnight at 37° C. to assess stimulation (positive score, related to 3 ug/ml Concanavalin A) or suppression (negative score, related to blank control) of cell proliferation. Test substance was evaluated under these conditions at 10, 1, 0.1, 0.01, 0,001 uM. After overnight incubation, 2 uCi [^3 H] thymidine was added to each well. Cells were harvested after an additional 48 hour incubation, and thymidine incorporation assessed by liquid scintillation counting.

[5] = tested on: oxazolone-induced delayed type hypersensitivity; assay: immunosuppression (cellular): oxazolone-induced delayed type hypersensitivity; format: in vivo, mouse (ICR, female); conditions: for Swelling (R -L) / ear thickness, Left Ear (No Oxa.) / ear thickness, Right Ear (24 hrs Oxa.): X +/- SEM
Description: The shaved abdominal surface of groups of 5 mice were sensitized by application of 0.1 ml of 5% oxazolone. The test substance was administered i.p after 1 hour and then daily for 5 consecutive doses. After an additional 4 days, the animals were challenged by application of 25 ul of 5% oxazolone to the right ear. Twenty-four hours later, ear thickness was measured with a Dyer Model micrometer gauge.
A 50 percent or greater decrease in drug-treated versus control animals is considered significant immunosuppressant activity.

Psoriasis = assay: clinical treatment of psoriasis; format: in vivo, human
Description: 17 patients, 11 men and 6 women, were treated with rhamnolipid (II). Among these, 12 patients were suffering from Psoriasis, 2 from Neurodermitis, 1 from Lichen ruber planus, 1 from Serborhoic dermatitis and one from Dermatitis circumscripta unilocularis eczematoides.
All patients were treated by application of a cream containing rhamnolipid II over selected psoriatic localities, 2 times a day for 21 days.
The remaining psoriatic localities on the body were treated with local corticosteroid.
The treatment and the follow-up of the patients was a "double blind" experiment.
The therapeutic efficacy was monitored by PASI-index.
After observing positive results with the first six psoriatic patients, who were treated and monitored until the end of the year, rhamnolipid was applied on larger psoriatic surfaces (up to a half of the patient's body where psoriatic lesions existed). Also, occlusions were used (up to 48 hours) and the duration and usage of occlusions was prolonged up to 35 days.
Patients were seen 3, 6 and 9 months after treatment and they were instructed not to apply any other local preparations at the same localities where rhamnolipic II was applied.

CHO cells [6] = tested on: CHO cells

Chain of P561ek Tyrosine Kinase (P06239 whole entry): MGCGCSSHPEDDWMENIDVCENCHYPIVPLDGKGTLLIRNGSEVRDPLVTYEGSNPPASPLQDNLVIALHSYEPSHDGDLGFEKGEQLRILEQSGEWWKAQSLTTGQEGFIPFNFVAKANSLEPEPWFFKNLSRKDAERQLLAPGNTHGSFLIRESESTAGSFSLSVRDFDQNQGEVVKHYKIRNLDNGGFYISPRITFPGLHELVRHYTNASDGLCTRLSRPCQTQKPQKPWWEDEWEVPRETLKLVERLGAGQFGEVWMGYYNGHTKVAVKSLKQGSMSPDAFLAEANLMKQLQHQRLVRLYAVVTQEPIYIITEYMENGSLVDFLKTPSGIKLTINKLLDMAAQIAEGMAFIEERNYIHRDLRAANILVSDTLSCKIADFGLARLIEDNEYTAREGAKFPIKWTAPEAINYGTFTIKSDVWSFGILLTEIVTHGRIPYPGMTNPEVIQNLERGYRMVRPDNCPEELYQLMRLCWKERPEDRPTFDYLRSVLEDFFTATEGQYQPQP
Chain of Dopamine D1 (human recombinant) (P21728 whole entry): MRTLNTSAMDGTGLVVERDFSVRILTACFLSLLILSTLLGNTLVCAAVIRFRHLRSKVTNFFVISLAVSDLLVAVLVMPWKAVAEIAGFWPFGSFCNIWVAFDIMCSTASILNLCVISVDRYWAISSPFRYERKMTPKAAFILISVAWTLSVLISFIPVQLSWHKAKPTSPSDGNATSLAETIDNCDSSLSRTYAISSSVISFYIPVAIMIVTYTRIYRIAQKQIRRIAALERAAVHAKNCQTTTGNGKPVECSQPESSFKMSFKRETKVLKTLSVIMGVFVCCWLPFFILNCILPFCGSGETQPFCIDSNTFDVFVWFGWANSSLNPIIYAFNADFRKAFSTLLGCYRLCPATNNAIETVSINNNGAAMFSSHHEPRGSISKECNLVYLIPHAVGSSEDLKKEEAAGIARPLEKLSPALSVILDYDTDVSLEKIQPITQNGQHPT
Chain of papain (P00784 134-345): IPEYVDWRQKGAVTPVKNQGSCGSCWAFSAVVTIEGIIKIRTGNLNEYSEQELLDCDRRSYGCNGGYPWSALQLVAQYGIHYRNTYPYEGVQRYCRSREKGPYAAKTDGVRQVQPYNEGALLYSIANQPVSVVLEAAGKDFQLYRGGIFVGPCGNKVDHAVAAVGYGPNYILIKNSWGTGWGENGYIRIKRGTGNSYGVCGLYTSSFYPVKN

CCCCCCCC(CC(=O)O)OC(=O)CC(CCCCCCC)O[C@@H]1O[C@@H](C)[C@H](O)[C@@H](O)[C@H]1O[C@@H]1O[C@@H](C)[C@H](O)[C@@H](O)[C@H]1O (stereo partly drawn) [Rhamnolipid (II), (alpha-L-rhamnopyranosyl-(1,2)alpha-L-rhamnopyranosyl)-3-hydroxydecanoyl-3-hydroxydecanoic acid]
concentration at which the enzyme was inhibited (beta-galactosidase): 100 µg/mL
concentration at which the enzyme was inhibited (trypsin): 1 mg/mL
inhibition at 0.01 µM (P561ek Tyrosine Kinase; 0.01 μM): 4%
inhibition at 1 µM (P561ek Tyrosine Kinase; 1 μM): 3%
inhibition at 100 µM (P561ek Tyrosine Kinase; 100 μM): 11%
inhibition at 0.01 µM ([1]; 0.01 μM): 8%
inhibition at 1 µM ([1]; 1 μM): 8%
inhibition at 100 µM ([1]; 100 μM): 101%
effect on enzyme (alpha-chymotrypsin): no effect
effect on enzyme (papain): no effect
antiviral activity (herpes simplex virus): no activity
antiviral activity [2]: no activity
Minimum inhibitory concentration (MIC) (Escherichia coli): > 0.5%
collagen induced platelet aggregation (rat platelet rich plasma): not affected
micronuclei numbers (CHO cells [3]): increased compared to the parallel control specimens
number of micronuclei inside certain binuclear cells (CHO cells [3]): up to 4
T-cell proliferation ([4]; 10 uM, without Con A): inhibited
in vitro T cell immunosuppression activity ([4]; 10 uM, without ConA): T cell immunosuppression activity
activation at 0.001 µM ([4]; Mus musculus, T-cell, 0.001 uM, 0.5% DMSO, read-out: % Stimulation (+)/Suppression (-)): -2%
activation at 0.01 µM ([4]; Mus musculus, T-cell, 0.01 uM, 0.5% DMSO, read-out: % Stimulation (+)/Suppression (-)): 0%
activation at 0.1 µM ([4]; Mus musculus, T-cell, 0.1 uM, 0.5% DMSO, read-out: % Stimulation (+)/Suppression (-)): 1%
activation at 1 µM ([4]; Mus musculus, T-cell, 1 uM, 0.5% DMSO, read-out: % Stimulation (+)/Suppression (-)): -3%
activation at 10 µM ([4]; Mus musculus, T-cell, 10 uM, 0.5% DMSO, read-out: % Stimulation (+)/Suppression (-)): -24%
Swelling Inh. % ([5]; IP 0.1 × 5 mg/kg): 16%
Swelling (R -L) ([5]; IP 0.1 × 5 mg/kg): 19.6 +/- 2.9 × 0.01 mm
ear thickness, Left Ear (No Oxa.) ([5]; IP 0.1 × 5 mg/kg): 21.0 +/- 0.8 × 0.01 mm
ear thickness, Right Ear (24 hrs Oxa.) ([5]; IP 0.1 × 5 mg/kg): 40.6 +/- 3.0 × 0.01 mm
Swelling Inh. % ([5]; IP 1 × 5 mg/kg): 22%
Swelling (R -L) ([5]; IP 1 × 5 mg/kg): 20.2 +/- 1.7 × 0.01 mm
ear thickness, Left Ear (No Oxa.) ([5]; IP 1 × 5 mg/kg): 21.0 +/- 0.5 × 0.01 mm
ear thickness, Right Ear (24 hrs Oxa.) ([5]; IP 1 × 5 mg/kg): 41.2 +/- 1.8 × 0.01 mm
Swelling Inh. % ([5]; IP 10 × 5 mg/kg): 19%
Swelling (R -L) ([5]; IP 10 × 5 mg/kg): 20.8 +/- 1.2 × 0.01 mm
ear thickness, Left Ear (No Oxa.) ([5]; IP 10 × 5 mg/kg): 20.8 +/- 0.7 × 0.01 mm
ear thickness, Right Ear (24 hrs Oxa.) ([5]; IP 10 × 5 mg/kg): 41.6 +/- 1.2 × 0.01 mm
Swelling Inh. % ([5]; IP 100 × 5 mg/kg): 26%
Swelling (R -L) ([5]; IP 100 × 5 mg/kg): 19.2 +/- 0.6 × 0.01 mm
ear thickness, Left Ear (No Oxa.) ([5]; IP 100 × 5 mg/kg): 19.0 +/- 0.9 × 0.01 mm
curative effects in comparison with corticosteroids (Psoriasis; 1% concentration): long-lasting curative effects
remission of the treated area (Psoriasis; 1% concentration, some patients): still in remission of the treated area after three years
appearance of relapses (Psoriasis; 10 months after treatment, versus local corticosteroid): significantly delayed
results on psoriatic lesions (Psoriasis; cream, 2 times a day for 21 days, follow up 3, 6 and 9 months): good results
time to curative effect versus local corticosteroid (Psoriasis; in most cases): sooner or in the same period of time it took local corticosteroid
relapses (Psoriasis; some patients, 10 months following the treatment, larger surfaces, occlusions): no relapses were observed even after 10 months
defect of spiralization (CHO cells [6]): not observed
overall structural chromosome damages and number of cells with 2 to 4 aberrations (CHO cells [6]): increased several fold
